Results on 6 compounds are retold here after DBAASP.

Among the test systems are Aspergillus fumigatus; Candida albicans; Cryptococcus neoformans; Sporothrix schenckii; Staphylococcus aureus MR; Candida albicans SC5314; Escherichia coli HB101.
Common to all, as to test: ≥ marks a high value that may be exact or a test limit, other limits are often not marked, values filed in µg/mL are converted to µM
In assay [1] the test system is Streptococcus mutans UA159.
In assay [2] the test system is Streptococcus sanguinis ATCC 10556.
Assay [3] concerns Streptococcus sobrinus ATCC 6715.
For assay [4], the system named is Bacillus subtilis ATCC 6633.
The test system of assay [5] is Candida parapsilosis ATCC 22019.
The subject of assay [6] is Escherichia coli ATCC 10536.
For assay [7], the system named is Klebsiella pneumoniae ATCC 27736.
In assay [8] the test system is Pseudomonas aeruginosa ATCC BAA-427.
In assay [9] the test system is Staphylococcus aureus ATCC 9144.
For assay [10], the system named is Staphylococcus epidermidis NRRL B-4268.
In assay [11] the test system is Trichophyton mentagrophytes.
Assay [12] relates to Actinomyces naeslundii ATCC 12104.
In assay [13] the test system is Enterococcus faecalis ATCC 29212.
In assay [14] the test system is Lacticaseibacillus casei ATCC 393.
Assay [15] deals with Lactobacillus acidophilus ATCC 14931.
The subject of assay [16] is Lactobacillus acidophilus ATCC 53544.
Assay [17] concerns Limosilactobacillus fermentum A1753.
The test system of assay [18] is Limosilactobacillus fermentum ATCC 9338.
In assay [19] the test system is Staphylococcus aureus ATCC 6538.
In assay [20] the test system is Streptococcus gordonii ATCC 35105.
For assay [21], the system named is Streptococcus gordonii DL1.
The subject of assay [22] is Streptococcus salivarius ATCC 13419.
Assay [23] deals with Streptococcus salivarius ATCC 27945.
Assay [24] deals with Streptococcus sanguinis JCM 5708.
In assay [25] the test system is Streptococcus sobrinus 6715.
Assay [26] deals with Pectobacterium carotovorum.
Assay [27] relates to Candida albicans CCARM 14020.
The subject of assay [28] is Candida albicans CCARM 14021.
Assay [29] concerns Candida albicans CCARM 14022.
Assay [30] concerns Leishmania major MHOM/IL/67/JERICHO-II.
In assay [31] the test system is Staphylococcus aureus Cowan 1.

Structures are written as SMILES. ≈ marks a conversion by molar mass, not a printed value. Where “and” joins values, the source holds several entries; their conditions need not be identical. Identical values can stand only once.

For the compound `CC(C)[C@H](NC(=O)[C@H](CCCCN)NC(=O)[C@H](Cc1ccccc1)NC(=O)[C@H](Cc1ccccc1)NC(=O)[C@H](CCCCN)NC(=O)[C@H](CCCCN)NC(=O)[C@H](Cc1ccccc1)NC(=O)[C@H](Cc1ccccc1)NC(=O)[C@H](CCCCN)NC(=O)CNC(=O)[C@H](Cc1c[nH]c2ccccc12)NC(=O)CN)C(=O)NCC(=O)N[C@@H](CCCCN)C(=O)O` [GWGKFFKKFFKVGK], the minimum inhibitory concentration (MIC) in assay [1], in assay [2] and in assay [3] was 18.8 µM (≈ 32 µg/mL) in each case.
Take `CC(C)C[C@H](NC(=O)[C@H](C)NC(=O)[C@H](CCCN=C(N)N)NC(=O)[C@H](CCCN=C(N)N)NC(=O)[C@H](C)NC(=O)[C@H](Cc1c[nH]c2ccccc12)NC(=O)[C@H](CCCCN)NC(=O)[C@H](CCCN=C(N)N)NC(=O)[C@H](C)NC(=O)[C@H](CCCN=C(N)N)NC(=O)[C@H](CCCN=C(N)N)NC(=O)[C@H](C)N)C(=O)N[C@@H](CCCCN)C(=O)N[C@@H](CC(C)C)C(=O)N[C@@H](C)C(N)=O` [ARRARKWARRALKLA]: the minimal inhibitory concentration (MIC) was 25 µM (≈ 45.6 µg/mL) with Aspergillus fumigatus; 20 µM (≈ 36.4 µg/mL) in assay [4]; above 25 µM against Candida albicans; 25 µM (≈ 45.6 µg/mL) in [5]; 25 µM (≈ 45.6 µg/mL) against Cryptococcus neoformans; 4.5 µM (≈ 8.2 µg/mL) in [6]. The minimal inhibitory concentration (MIC) in assay [7] was found to be 25 µM (≈ 45.6 µg/mL); in assay [8] it was 6.25 µM (≈ 11.4 µg/mL); in the assay with Sporothrix schenckii it was 25 µM (≈ 45.6 µg/mL); in assay [9] it was 6.25 µM (≈ 11.4 µg/mL); with Staphylococcus aureus MR it was 25 µM (≈ 45.6 µg/mL); in [10], 8 µM (≈ 14.6 µg/mL). For the same compound, in assay [11], the MIC came out at 25 µM (≈ 45.6 µg/mL).
With `CC(C)C[C@H](NC(=O)CN)C(=O)N[C@@H](CC(C)C)C(=O)N[C@@H](Cc1c[nH]c2ccccc12)C(=O)N[C@@H](Cc1cnc[nH]1)C(=O)N[C@@H](CC(C)C)C(=O)N[C@@H](CC(C)C)C(=O)N[C@@H](Cc1cnc[nH]1)C(=O)N[C@@H](Cc1cnc[nH]1)C(=O)N[C@@H](CC(C)C)C(=O)N[C@@H](CC(C)C)C(=O)N[C@@H](Cc1cnc[nH]1)C(N)=O` [GLLWHLLHHLLH], the MIC in [12] is 2.69 µM (≈ 4 µg/mL); in assay [13], 25.1 µM and 50.2 µM; in assay [14] it was 2.69 µM and 3.14 µM and 6.27 µM; in assay [15], 2.69 µM (≈ 4 µg/mL); in assay [16] it was 3.14 µM and 4.92 µM; in [17], 2.02 µM and 3.14 µM. For the same compound, the minimum inhibitory concentration (MIC) is 2.69 µM (≈ 4 µg/mL) in assay [18]; 7.17 µM and 14.3 µM in [19]; 10.7 µM and 21.5 µM in assay [20]; 5.37 µM (≈ 7.99 µg/mL) in assay [21]; 4.5 µM and 4.48 µM and 6.27 µM in assay [1]; 5.37 µM (≈ 7.99 µg/mL) in assay [22]. Besides, the MIC was 2.47 µM and 4.92 µM in [23]; 5.37 µM (≈ 7.99 µg/mL) in assay [2]; 5.37 µM and 10.7 µM in assay [24]; 10.7 µM and 4.03 µM and 8.06 µM in [25].
With `CC(C)C[C@H](NC(=O)[C@H](CC(N)=O)NC(=O)[C@H](Cc1ccc(O)cc1)NC(=O)[C@@H]1CCCN1C(=O)[C@@H]1CCCN1)C(=O)N[C@@H](CC(N)=O)C(=O)N[C@@H](CO)C(=O)N[C@@H](Cc1cnc[nH]1)C(=O)N[C@H](C(=O)N[C@@H](CCC(N)=O)C(=O)N[C@@H](CCC(=O)O)C(=O)N[C@@H](Cc1ccc(O)cc1)C(=O)N[C@@H](CO)C(=O)N[C@@H](CCCCN)C(=O)N1CCC[C@H]1C(=O)N[C@@H](CCC(=O)O)C(=O)N[C@@H](CC(=O)O)C(=O)N[C@H](C(=O)N[C@@H](Cc1ccccc1)C(=O)N[C@@H](CC(=O)O)C(=O)O)[C@@H](C)O)[C@@H](C)O` [PPYNLNSHTQEYSKPEDTFD], in [26], the MIC is 4.47 µM (≈ 10.7 µg/mL).
In the case of `CC(C)C[C@H](NC(=O)[C@H](C)N)C(=O)N[C@@H](CC(C)C)C(=O)N[C@@H](Cc1cnc[nH]1)C(=O)N[C@@H](Cc1cnc[nH]1)C(=O)NCC(=O)N[C@@H](Cc1ccc(O)cc1)C(=O)N[C@@H](CCCCN)C(=O)N[C@@H](CCCN=C(N)N)C(=O)N[C@@H](CCCCN)C(=O)N[C@@H](Cc1ccccc1)C(=O)N[C@@H](Cc1cnc[nH]1)C(N)=O` [ALLHHGYKRKFH], the minimum inhibitory concentration (MIC) in assay [27] was determined as 7.51 µM (≈ 11.3 µg/mL); in assay [28] it was 21.2 µM (≈ 32 µg/mL); in [29], 21.2 µM (≈ 32 µg/mL); against Candida albicans SC5314, 15 µM (≈ 22.6 µg/mL).
As for `CSCC[C@H](NC(=O)[C@@H](NC(=O)CNC(=O)[C@H](CC(C)C)NC(=O)[C@H](CCCCN)NC(=O)[C@H](CCCCN)NC(=O)[C@H](CC(C)C)NC(=O)[C@H](CCSC)NC(=O)[C@@H](NC(=O)[C@H](CCCCN)NC(=O)[C@H](Cc1c[nH]c2ccccc12)NC(=O)[C@H](CC(C)C)NC(=O)[C@H](C)N)[C@@H](C)O)[C@@H](C)O)C(=O)N[C@@H](C)C(N)=O` [ALWKTMLKKLGTMA], the minimal inhibitory concentration (MIC) (against Escherichia coli HB101; in assay [30]; in assay [31]) was at least 48.8 µM in each case.
